Key:
[1] = Crystal; visual observation
[2] = wn = mass fraction of the nth substance listed; settings: Fluid (supercritical or subcritical phases), Other PVT measurement

O=C(OCCC(F)(F)C(F)(F)C(F)(F)C(F)(F)C(F)(F)C(F)(F)F)c1cccc(-c2cccc(C(=O)OCCC(F)(F)C(F)(F)C(F)(F)C(F)(F)C(F)(F)C(F)(F)F)c2)c1
Settings | Normal melting temperature [°C]
[1] | 72.00

O=C(OCCC(F)(F)C(F)(F)C(F)(F)C(F)(F)C(F)(F)C(F)(F)F)c1cccc(-c2cccc(C(=O)OCCC(F)(F)C(F)(F)C(F)(F)C(F)(F)C(F)(F)C(F)(F)F)c2)c1 + O=C=O
[2]
Settings | mass density [kg/m3]
294.55 K, 5980 kPa, w1 = 0.135 | 744
295.05 K, 6070 kPa, w1 = 0.116 | 768
295.15 K, 6170 kPa, w1 = 0.016 | 745
295.55 K, 6240 kPa, w1 = 0.279 | 976
295.95 K, 6280 kPa, w1 = 0.405 | 1054
296.45 K, 6310 kPa, w1 = 0.334 | 950
296.55 K, 6380 kPa, w1 = 0.206 | 904
298.35 K, 6620 kPa, w1 = 0.206 | 900
298.75 K, 6590 kPa, w1 = 0.116 | 782
299.15 K, 6730 kPa, w1 = 0.405 | 1049
299.75 K, 6610 kPa, w1 = 0.273 | 933
299.75 K, 6900 kPa, w1 = 0.135 | 737
299.95 K, 6860 kPa, w1 = 0.279 | 962
300.55 K, 6930 kPa, w1 = 0.334 | 967
301.15 K, 6900 kPa, w1 = 0.273 | 932
301.95 K, 7070 kPa, w1 = 0.279 | 954
302.75 K, 7520 kPa, w1 = 0.016 | 689
303.15 K, 7240 kPa, w1 = 0.334 | 957
303.35 K, 7310 kPa, w1 = 0.116 | 763
303.35 K, 7340 kPa, w1 = 0.135 | 723
303.35 K, 7550 kPa, w1 = 0.206 | 880
303.45 K, 7240 kPa, w1 = 0.273 | 887
304.75 K, 8270 kPa, w1 = 0.279 | 952
305.35 K, 7520 kPa, w1 = 0.273 | 827
305.85 K, 7660 kPa, w1 = 0.273 | 782
305.95 K, 7620 kPa, w1 = 0.016 | 654
312.75 K, 10240 kPa, w1 = 0.116 | 752
318.45 K, 12270 kPa, w1 = 0.135 | 711
320.65 K, 13200 kPa, w1 = 0.279 | 925
321.05 K, 12890 kPa, w1 = 0.334 | 931
321.05 K, 13270 kPa, w1 = 0.206 | 856
322.65 K, 11510 kPa, w1 = 0.016 | 622
327.85 K, 14660 kPa, w1 = 0.405 | 1001
330.05 K, 15000 kPa, w1 = 0.405 | 999
332.45 K, 15960 kPa, w1 = 0.135 | 688
338.55 K, 17380 kPa, w1 = 0.116 | 719
342.75 K, 18790 kPa, w1 = 0.206 | 816
344.35 K, 18760 kPa, w1 = 0.334 | 898
345.35 K, 18820 kPa, w1 = 0.405 | 969
346.15 K, 19720 kPa, w1 = 0.279 | 879
347.75 K, 16790 kPa, w1 = 0.016 | 585
348.55 K, 19620 kPa, w1 = 0.135 | 665
360.65 K, 22690 kPa, w1 = 0.405 | 949
362.85 K, 23000 kPa, w1 = 0.206 | 777
363.55 K, 22380 kPa, w1 = 0.116 | 673
363.65 K, 23000 kPa, w1 = 0.334 | 862
363.75 K, 19380 kPa, w1 = 0.016 | 554
368.05 K, 24130 kPa, w1 = 0.279 | 835
369.65 K, 24030 kPa, w1 = 0.135 | 639

O=C(OCCC(F)(F)C(F)(F)C(F)(F)C(F)(F)C(F)(F)C(F)(F)F)c1ccccc1-c1ccccc1C(=O)OCCC(F)(F)C(F)(F)C(F)(F)C(F)(F)C(F)(F)C(F)(F)F + O=C=O
[2]
Settings | mass density [kg/m3]
294.65 K, 5000 kPa, w1 = 0.652 | 892
294.65 K, 5620 kPa, w1 = 0.36 | 681
294.85 K, 5930 kPa, w1 = 0.063 | 606
295.15 K, 6040 kPa, w1 = 0.13 | 668
295.55 K, 6170 kPa, w1 = 0.021 | 663
297.35 K, 6380 kPa, w1 = 0.13 | 688
297.45 K, 6110 kPa, w1 = 0.36 | 690
297.75 K, 5170 kPa, w1 = 0.652 | 896
298.65 K, 5930 kPa, w1 = 0.515 | 968
298.75 K, 6310 kPa, w1 = 0.288 | 798
298.85 K, 6590 kPa, w1 = 0.063 | 640
299.15 K, 6690 kPa, w1 = 0.021 | 643
303.05 K, 7110 kPa, w1 = 0.13 | 662
303.35 K, 7210 kPa, w1 = 0.063 | 617
303.35 K, 7380 kPa, w1 = 0.021 | 601
304.65 K, 7210 kPa, w1 = 0.288 | 781
307.95 K, 7210 kPa, w1 = 0.515 | 949
309.35 K, 8200 kPa, w1 = 0.021 | 558
309.75 K, 7970 kPa, w1 = 0.36 | 739
309.95 K, 8030 kPa, w1 = 0.063 | 579
309.95 K, 8070 kPa, w1 = 0.288 | 771
311.95 K, 8580 kPa, w1 = 0.13 | 630
314.35 K, 7140 kPa, w1 = 0.652 | 966
317.85 K, 8860 kPa, w1 = 0.515 | 929
318.85 K, 9510 kPa, w1 = 0.288 | 750
320.05 K, 10210 kPa, w1 = 0.36 | 724
321.05 K, 10870 kPa, w1 = 0.202 | 594
323.85 K, 11580 kPa, w1 = 0.13 | 613
327.05 K, 11550 kPa, w1 = 0.021 | 518
330.25 K, 13000 kPa, w1 = 0.063 | 561
331.85 K, 12530 kPa, w1 = 0.36 | 712
332.75 K, 12890 kPa, w1 = 0.288 | 728
333.95 K, 9800 kPa, w1 = 0.652 | 940
334.55 K, 12170 kPa, w1 = 0.515 | 899
336.45 K, 14580 kPa, w1 = 0.202 | 578
341.45 K, 15270 kPa, w1 = 0.36 | 701
346.35 K, 16510 kPa, w1 = 0.13 | 581
349.25 K, 15310 kPa, w1 = 0.021 | 490
349.95 K, 17000 kPa, w1 = 0.063 | 536
350.65 K, 15520 kPa, w1 = 0.515 | 870
352.75 K, 17100 kPa, w1 = 0.288 | 697
353.75 K, 12800 kPa, w1 = 0.652 | 918
354.55 K, 18170 kPa, w1 = 0.202 | 565
354.95 K, 17650 kPa, w1 = 0.36 | 681
367.35 K, 20380 kPa, w1 = 0.13 | 553
368.25 K, 17510 kPa, w1 = 0.021 | 458
368.45 K, 18830 kPa, w1 = 0.515 | 840
369.05 K, 20170 kPa, w1 = 0.288 | 675
369.25 K, 19820 kPa, w1 = 0.36 | 659
370.45 K, 15210 kPa, w1 = 0.652 | 900
371.85 K, 20310 kPa, w1 = 0.063 | 503
371.85 K, 21240 kPa, w1 = 0.202 | 542

From the NIST ThermoML archive (doi:10.1016/j.fluid.2005.09.019)
